Laboratory results taken from US8802597B2, “Herbicidal pyrimidines” (E I du Pont de Nemours and Company, priority 2003, dated 2014).

How the values were obtained:
Assay type in all cases: in vivo
[1] = tested on: barnyardgrass (Echinochloa crus-galli); assay: Test E flooded paddy water application; settings: Flood, 21 days, scale 0 to 100 (0 no effect, 100 complete control); for Plant response rating, Barnyardgrass: 16 g ai/ha
How it was run: (§1)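 Response scored visually on a 0–100 scale (100 = complete control) at 21 days against untreated pots. Treatment was into paddy water 3 cm deep over silt loam, with plants at the 2.0–2.5-leaf stage, grown under 16-h light at 29.5/26.7 °C day/night.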

[2] = tested on: water seeded rice seedlings (Oryza sativa cv. ‘Japonica-M202’); assay: Test E flooded paddy water application; settings: Flood, 21 days, scale 0 to 100 (0 no effect, 100 complete control); for Plant response rating, Rice, Water Seeded: 16 g ai/ha
How it was run: as §1

[3] = tested on: junglerice (Echinochloa colona); assay: Test E flooded paddy water application; settings: Flood, 21 days, scale 0 to 100 (0 no effect, 100 complete control); for Plant response rating, Junglerice: 16 g ai/ha
How it was run: as §1

[4] = tested on: ducksalad (Heteranthera limosa); assay: Test E flooded paddy water application; settings: Flood, 21 days, scale 0 to 100 (0 no effect, 100 complete control); for Plant response rating, Ducksalad: 16 g ai/ha
How it was run: as §1

[5] = tested on: purple redstem (Ammannia coccinea); assay: Test E flooded paddy water application; settings: Flood, 21 days, scale 0 to 100 (0 no effect, 100 complete control); for Plant response rating, Redstem: 16 g ai/ha
How it was run: as §1

[6] = tested on: rice flatsedge (Cyperus iria); assay: Test E flooded paddy water application; settings: Flood, 21 days, scale 0 to 100 (0 no effect, 100 complete control); for Plant response rating, Flatsedge, Rice: 16 g ai/ha
How it was run: as §1

[7] = tested on: early watergrass (Echinochloa oryzoides); assay: Test E flooded paddy water application; settings: Flood, 21 days, scale 0 to 100 (0 no effect, 100 complete control); for Plant response rating, Watergrass, Early: 16 g ai/ha
How it was run: as §1

[8] = tested on: transplanted rice seedlings (Oryza sativa cv. ‘Japonica-M202’); assay: Test E flooded paddy water application; settings: Flood, 21 days, scale 0 to 100 (0 no effect, 100 complete control); for Plant response rating, Rice, Transplanted: 16 g ai/ha
How it was run: as §1

[9] = tested on: late watergrass (Echinochloa oryzicola); assay: Test E flooded paddy water application; settings: Flood, 21 days, scale 0 to 100 (0 no effect, 100 complete control); for Plant response rating, Watergrass, Late: 16 g ai/ha
How it was run: as §1

[10] = tested on: bearded (brdd.) sprangletop (Leptochloa fusca ssp. fascicularis); assay: Test E flooded paddy water application; settings: Flood, 21 days, scale 0 to 100 (0 no effect, 100 complete control)
How it was run: as §1

[11] = tested on: smallflower umbrella sedge (Cyperus difformis); assay: Test E flooded paddy water application; settings: Flood, 21 days, scale 0 to 100 (0 no effect, 100 complete control); for Plant response rating, Sedge, Umbrella: 16 g ai/ha
How it was run: as §1

[12] = tested on: giant foxtail (Setaria faberi); assay: Test A pre/postemergence
How it was run: (§2)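 Visual injury scores on a 0–100 scale, 100 being complete control, were assigned roughly ten days after treatment by comparison with untreated greenhouse controls. Test chemicals, formulated with surfactant in non-phytotoxic solvent, were sprayed onto soil preemergence and onto 1–2-leaf plants 2–10 cm tall postemergence.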

[13] = tested on: barnyardgrass (Echinochloa crus-galli); assay: Test A pre/postemergence
How it was run: as §2

[14] = tested on: velvetleaf (Abutilon theophrasti); assay: Test A pre/postemergence
How it was run: as §2

[15] = tested on: morningglory (Ipomoea spp.); assay: Test A pre/postemergence
How it was run: as §2

[16] = tested on: redroot pigweed (Amaranthus retroflexus); assay: Test A pre/postemergence
How it was run: as §2

[17] = tested on: crabgrass (Digitaria sanguinalis); assay: Test A pre/postemergence
How it was run: as §2

[18] = Postemergence, 125 g ai/ha, 0 to 100 scale (0 no effect, 100 complete control)
[19] = Postemergence, 500 g ai/ha, 0 to 100 scale (0 no effect, 100 complete control)
[20] = Preemergence, 125 g ai/ha, 0 to 100 scale where 0 is no effect and 100 is complete control, approximately ten days
[21] = Preemergence, 500 g ai/ha, 0 to 100 scale where 0 is no effect and 100 is complete control, approximately ten days

CCOC(=O)c1nc(-c2ccc(Cl)c(Cl)c2)nc(N)c1Cl [Compound 73]
Barnyardgrass plant response rating ([1]; 64 g ai/ha): 0 | Barnyardgrass plant response rating ([1]; 125 g ai/ha): 90 | Barnyardgrass plant response rating ([1]; 250 g ai/ha): 100 | Plant response rating, Barnyardgrass [1]: 0 | Rice, Water Seeded plant response rating ([2]; 32 g ai/ha): 0 | Rice, Water Seeded plant response rating ([2]; 64 g ai/ha): 0 | Rice, Water Seeded plant response rating ([2]; 125 g ai/ha): 0 | Rice, Water Seeded plant response rating ([2]; 250 g ai/ha): 0 | Plant response rating, Rice, Water Seeded [2]: 0 | Junglerice plant response rating ([3]; 32 g ai/ha): 0 | Junglerice plant response rating ([3]; 64 g ai/ha): 0 | Junglerice plant response rating ([3]; 125 g ai/ha): 0 | Junglerice plant response rating ([3]; 250 g ai/ha): 0 | Plant response rating, Junglerice [3]: 0 | Ducksalad plant response rating ([4]; 32 g ai/ha): 100 | Ducksalad plant response rating ([4]; 64 g ai/ha): 100 | Ducksalad plant response rating ([4]; 125 g ai/ha): 100 | Ducksalad plant response rating ([4]; 250 g ai/ha): 100 | Plant response rating, Ducksalad [4]: 75 | Redstem plant response rating ([5]; 32 g ai/ha): 0 | Redstem plant response rating ([5]; 64 g ai/ha): 90 | Redstem plant response rating ([5]; 125 g ai/ha): 100 | Redstem plant response rating ([5]; 250 g ai/ha): 100 | Plant response rating, Redstem [5]: 0 | Flatsedge, Rice plant response rating ([6]; 32 g ai/ha): 0 | Flatsedge, Rice plant response rating ([6]; 64 g ai/ha): 0 | Flatsedge, Rice plant response rating ([6]; 250 g ai/ha): 45 | Plant response rating, Flatsedge, Rice [6]: 0 | Watergrass, Early plant response rating ([7]; 32 g ai/ha): 0 | Watergrass, Early plant response rating ([7]; 64 g ai/ha): 0 | Watergrass, Early plant response rating ([7]; 125 g ai/ha): 0 | Watergrass, Early plant response rating ([7]; 250 g ai/ha): 0 | Plant response rating, Watergrass, Early [7]: 0 | Rice, Transplanted plant response rating ([8]; 32 g ai/ha): 0 | Rice, Transplanted plant response rating ([8]; 64 g ai/ha): 0 | Rice, Transplanted plant response rating ([8]; 125 g ai/ha): 0 | Rice, Transplanted plant response rating ([8]; 250 g ai/ha): 0 | Plant response rating, Rice, Transplanted [8]: 0 | Watergrass, Late plant response rating ([9]; 32 g ai/ha): 0 | Watergrass, Late plant response rating ([9]; 64 g ai/ha): 0 | Watergrass, Late plant response rating ([9]; 125 g ai/ha): 0 | Watergrass, Late plant response rating ([9]; 250 g ai/ha): 20 | Plant response rating, Watergrass, Late [9]: 0 | Sprangletop, Brdd. plant response rating ([10]; 32 g ai/ha): 0 | Sprangletop, Brdd. plant response rating ([10]; 64 g ai/ha): 0 | Sprangletop, Brdd. plant response rating ([10]; 125 g ai/ha): 50 | Sprangletop, Brdd. plant response rating ([10]; 250 g ai/ha): 70 | Plant response rating, Sprangletop, Brdd. ([10]; 16 g ai/ha): 0 | Sedge, Umbrella plant response rating ([11]; 32 g ai/ha): 0 | Sedge, Umbrella plant response rating ([11]; 64 g ai/ha): 0 | Sedge, Umbrella plant response rating ([11]; 125 g ai/ha): 35 | Sedge, Umbrella plant response rating ([11]; 250 g ai/ha): 85 | Plant response rating, Sedge, Umbrella [11]: 0 | Plant response rating, Foxtail, Giant [12, 18]: 15 | Plant response rating, Foxtail, Giant [12, 19]: 45 | Plant response rating, Foxtail, Giant [12, 20]: 0 | Plant response rating, Foxtail, Giant [12, 21]: 15 | Plant response rating, Barnyardgrass [13, 18]: 0 | Plant response rating, Barnyardgrass [13, 19]: 5 | Plant response rating, Barnyardgrass [13, 20]: 5 | Plant response rating, Barnyardgrass [13, 21]: 30 | Plant response rating, Velvetleaf [14, 18]: 70 | Plant response rating, Velvetleaf [14, 19]: 75 | Plant response rating, Velvetleaf [14, 20]: 35 | Plant response rating, Velvetleaf [14, 21]: 40 | Plant response rating, Morningglory [15, 18]: 50 | Plant response rating, Morningglory [15, 19]: 65 | Plant response rating, Morningglory [15, 20]: 0 | Plant response rating, Morningglory [15, 21]: 0 | Plant response rating, Pigweed [16, 18]: 75 | Plant response rating, Pigweed [16, 19]: 80 | Plant response rating, Pigweed [16, 20]: 15 | Plant response rating, Pigweed [16, 21]: 60 | Plant response rating, Crabgrass [17, 18]: 15 | Plant response rating, Crabgrass [17, 19]: 35 | Plant response rating, Crabgrass [17, 20]: 5 | Plant response rating, Crabgrass [17, 21]: 35

CCOC(=O)c1nc(-c2ccc(C)c(C)c2)nc(N)c1Cl [Compound 71]
Barnyardgrass plant response rating ([1]; 32 g ai/ha): 0 | Barnyardgrass plant response rating ([1]; 64 g ai/ha): 0 | Barnyardgrass plant response rating ([1]; 125 g ai/ha): 0 | Barnyardgrass plant response rating ([1]; 250 g ai/ha): 60 | Plant response rating, Barnyardgrass [1]: 0 | Rice, Water Seeded plant response rating ([2]; 32 g ai/ha): 0 | Rice, Water Seeded plant response rating ([2]; 64 g ai/ha): 0 | Rice, Water Seeded plant response rating ([2]; 125 g ai/ha): 0 | Rice, Water Seeded plant response rating ([2]; 250 g ai/ha): 0 | Plant response rating, Rice, Water Seeded [2]: 0 | Junglerice plant response rating ([3]; 32 g ai/ha): 0 | Junglerice plant response rating ([3]; 64 g ai/ha): 0 | Junglerice plant response rating ([3]; 125 g ai/ha): 0 | Junglerice plant response rating ([3]; 250 g ai/ha): 45 | Plant response rating, Junglerice [3]: 0 | Ducksalad plant response rating ([4]; 32 g ai/ha): 100 | Ducksalad plant response rating ([4]; 64 g ai/ha): 100 | Ducksalad plant response rating ([4]; 125 g ai/ha): 100 | Ducksalad plant response rating ([4]; 250 g ai/ha): 100 | Plant response rating, Ducksalad [4]: 100 | Redstem plant response rating ([5]; 32 g ai/ha): 0 | Redstem plant response rating ([5]; 64 g ai/ha): 0 | Redstem plant response rating ([5]; 125 g ai/ha): 0 | Redstem plant response rating ([5]; 250 g ai/ha): 30 | Plant response rating, Redstem [5]: 0 | Flatsedge, Rice plant response rating ([6]; 32 g ai/ha): 0 | Flatsedge, Rice plant response rating ([6]; 64 g ai/ha): 0 | Flatsedge, Rice plant response rating ([6]; 125 g ai/ha): 0 | Flatsedge, Rice plant response rating ([6]; 250 g ai/ha): 0 | Plant response rating, Flatsedge, Rice [6]: 0 | Watergrass, Early plant response rating ([7]; 32 g ai/ha): 0 | Watergrass, Early plant response rating ([7]; 64 g ai/ha): 0 | Watergrass, Early plant response rating ([7]; 125 g ai/ha): 0 | Watergrass, Early plant response rating ([7]; 250 g ai/ha): 0 | Plant response rating, Watergrass, Early [7]: 0 | Rice, Transplanted plant response rating ([8]; 32 g ai/ha): 0 | Rice, Transplanted plant response rating ([8]; 64 g ai/ha): 0 | Rice, Transplanted plant response rating ([8]; 125 g ai/ha): 0 | Rice, Transplanted plant response rating ([8]; 250 g ai/ha): 0 | Plant response rating, Rice, Transplanted [8]: 0 | Watergrass, Late plant response rating ([9]; 32 g ai/ha): 0 | Watergrass, Late plant response rating ([9]; 64 g ai/ha): 0 | Watergrass, Late plant response rating ([9]; 125 g ai/ha): 0 | Watergrass, Late plant response rating ([9]; 250 g ai/ha): 0 | Plant response rating, Watergrass, Late [9]: 0 | Sprangletop, Brdd. plant response rating ([10]; 32 g ai/ha): 0 | Sprangletop, Brdd. plant response rating ([10]; 125 g ai/ha): 0 | Sprangletop, Brdd. plant response rating ([10]; 250 g ai/ha): 60 | Sedge, Umbrella plant response rating ([11]; 32 g ai/ha): 0 | Sedge, Umbrella plant response rating ([11]; 64 g ai/ha): 0 | Sedge, Umbrella plant response rating ([11]; 125 g ai/ha): 30 | Sedge, Umbrella plant response rating ([11]; 250 g ai/ha): 70 | Plant response rating, Sedge, Umbrella [11]: 0 | Plant response rating, Foxtail, Giant [12, 18]: 0 | Plant response rating, Foxtail, Giant [12, 19]: 0 | Plant response rating, Foxtail, Giant [12, 20]: 0 | Plant response rating, Foxtail, Giant [12, 21]: 0 | Plant response rating, Barnyardgrass [13, 18]: 0 | Plant response rating, Barnyardgrass [13, 19]: 0 | Plant response rating, Barnyardgrass [13, 20]: 0 | Plant response rating, Barnyardgrass [13, 21]: 0 | Plant response rating, Velvetleaf [14, 18]: 40 | Plant response rating, Velvetleaf [14, 19]: 55 | Plant response rating, Velvetleaf [14, 20]: 30 | Plant response rating, Velvetleaf [14, 21]: 50 | Plant response rating, Morningglory [15, 18]: 0 | Plant response rating, Morningglory [15, 19]: 0 | Plant response rating, Morningglory [15, 20]: 0 | Plant response rating, Morningglory [15, 21]: 0 | Plant response rating, Pigweed [16, 18]: 5 | Plant response rating, Pigweed [16, 19]: 30 | Plant response rating, Pigweed [16, 20]: 0 | Plant response rating, Pigweed [16, 21]: 15 | Plant response rating, Crabgrass [17, 18]: 0 | Plant response rating, Crabgrass [17, 19]: 5 | Plant response rating, Crabgrass [17, 20]: 0 | Plant response rating, Crabgrass [17, 21]: 0
